# Data published in patent US7074789B2, “Kinase inhibitors” (Amgen Inc., priority 1999, dated 2006).
# How the values were obtained:
# Type in all cases: biochemical
# EPHB4 = target: T1, EPHB4 (Homo sapiens, UniProt P54760); experiment: Kinase inhibition assay (33P transfer), EPHB4; details: for IC50: read-out: EPHB4-1
# T1 construct: Kinases are expressed as either kinase domains or full length constructs; made in house
# T1 sequence (P54760 16-987): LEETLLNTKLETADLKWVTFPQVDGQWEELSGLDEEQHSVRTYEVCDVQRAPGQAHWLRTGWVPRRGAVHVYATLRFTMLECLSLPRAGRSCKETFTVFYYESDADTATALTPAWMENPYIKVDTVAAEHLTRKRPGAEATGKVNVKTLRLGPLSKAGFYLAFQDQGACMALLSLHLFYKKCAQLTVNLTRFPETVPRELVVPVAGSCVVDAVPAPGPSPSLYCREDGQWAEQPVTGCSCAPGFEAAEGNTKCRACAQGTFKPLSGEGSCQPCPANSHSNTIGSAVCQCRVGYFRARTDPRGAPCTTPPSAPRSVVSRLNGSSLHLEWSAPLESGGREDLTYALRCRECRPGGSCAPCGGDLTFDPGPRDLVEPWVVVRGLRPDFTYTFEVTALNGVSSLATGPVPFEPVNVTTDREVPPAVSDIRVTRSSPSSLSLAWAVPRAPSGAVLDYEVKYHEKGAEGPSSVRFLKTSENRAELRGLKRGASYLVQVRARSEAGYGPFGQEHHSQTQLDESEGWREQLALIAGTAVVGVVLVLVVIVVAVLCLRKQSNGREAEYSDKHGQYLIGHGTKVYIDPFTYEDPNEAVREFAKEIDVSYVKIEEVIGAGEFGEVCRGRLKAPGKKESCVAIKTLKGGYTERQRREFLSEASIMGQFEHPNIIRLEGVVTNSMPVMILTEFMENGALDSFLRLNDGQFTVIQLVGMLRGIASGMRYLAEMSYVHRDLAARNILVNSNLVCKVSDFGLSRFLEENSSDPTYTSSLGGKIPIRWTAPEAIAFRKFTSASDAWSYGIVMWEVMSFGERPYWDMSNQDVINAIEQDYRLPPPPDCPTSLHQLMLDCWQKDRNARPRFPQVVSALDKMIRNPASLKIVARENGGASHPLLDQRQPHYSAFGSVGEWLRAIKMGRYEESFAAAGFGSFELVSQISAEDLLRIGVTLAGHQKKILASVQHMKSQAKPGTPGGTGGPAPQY
# AKT = target: T2, AKT (Homo sapiens, UniProt Q9Y243); experiment: Kinase inhibition assay (33P transfer), AKT; details: Table 2, kinase inhibition class; for IC50: read-out: AKT3-1
# T2 construct: Kinases are expressed as either kinase domains or full length constructs; made in house
# Outline: (§1)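 Measured by scintillation: radiolabelled phosphate added by tagged recombinant kinases to poly(Glu,Tyr) 4:1 or poly(Arg,Ser) 3:1 attached to microtiter wells, counted once free label was washed away with 0.5% phosphoric acid.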
# Kdr = target: T3, Kdr (Homo sapiens, UniProt P35968); experiment: Kinase inhibition assay (33P transfer), Kdr; details: Table 3; for IC50: read-out: KDR-1
# T3 construct: Kinases are expressed as either kinase domains or full length constructs; made in house
# Outline: as §1
# Tek = target: T4, Tek (Homo sapiens, UniProt Q02763); experiment: Kinase inhibition assay (33P transfer), Tek; details: read-out: Tek-1
# T4 construct: Kinases are expressed as either kinase domains or full length constructs; made in house
# Outline: (§2)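 IC50: inhibitor concentration lowering 33P incorporation into immobilised substrate by 50%. Label transferred from ATP to poly(Glu,Tyr) 4:1 or poly(Arg,Ser) 3:1 is measured after a 0.5% phosphoric acid wash by liquid scintillation.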
# Lck = target: T5, Lck (Homo sapiens, UniProt P06239); experiment: Kinase inhibition assay (33P transfer), Lck; details: Table 3; for IC50: read-out: Lck-1
# T5 construct: Kinases are expressed as either kinase domains or full length constructs; made in house
# Outline: as §1
# EGFR = target: T6, EGFR (Homo sapiens, UniProt P00533); experiment: Kinase inhibition assay (33P transfer), EGFR; details: Table 2, kinase inhibition class; for IC50: read-out: EGFR-1
# T6 construct: Kinases are expressed as either kinase domains or full length constructs; made in house
# Outline: as §2
# c-Met = target: T7, c-Met (Homo sapiens, UniProt P08581); experiment: Kinase inhibition assay (33P transfer), c-Met; details: Table 2, kinase inhibition class; for IC50: read-out: Met-1
# T7 construct: Kinases are expressed as either kinase domains or full length constructs; made in house
# Outline: as §2
# Itk = target: T8, Itk (Homo sapiens, UniProt Q08881); experiment: Kinase inhibition assay (33P transfer), Itk; details: Table 3; for IC50: read-out: Itk-1
# T8 construct: Kinases are expressed as either kinase domains or full length constructs; made in house
# T8 sequence (Q08881 1-620): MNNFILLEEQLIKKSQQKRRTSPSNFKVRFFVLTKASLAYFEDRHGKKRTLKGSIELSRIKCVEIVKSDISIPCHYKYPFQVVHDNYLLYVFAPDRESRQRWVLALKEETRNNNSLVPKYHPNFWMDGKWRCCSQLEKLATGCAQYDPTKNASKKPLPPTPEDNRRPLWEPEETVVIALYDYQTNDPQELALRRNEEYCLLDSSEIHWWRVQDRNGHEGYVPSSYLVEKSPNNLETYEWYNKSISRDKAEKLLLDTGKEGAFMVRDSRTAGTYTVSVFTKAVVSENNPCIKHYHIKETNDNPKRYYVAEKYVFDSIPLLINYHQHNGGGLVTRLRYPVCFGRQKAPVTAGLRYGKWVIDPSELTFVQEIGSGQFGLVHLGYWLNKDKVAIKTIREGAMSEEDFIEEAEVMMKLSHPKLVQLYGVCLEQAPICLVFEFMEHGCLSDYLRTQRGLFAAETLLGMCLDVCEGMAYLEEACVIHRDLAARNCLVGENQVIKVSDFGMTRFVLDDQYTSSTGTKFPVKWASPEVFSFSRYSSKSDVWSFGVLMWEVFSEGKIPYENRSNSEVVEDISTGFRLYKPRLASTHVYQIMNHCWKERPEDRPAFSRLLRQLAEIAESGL
# Outline: as §2
# IGFR-1 = target: T9, IGFR-1 (Homo sapiens, UniProt P08069); experiment: Kinase inhibition assay (33P transfer), IGFR-1; details: Table 2, kinase inhibition class
# T9 construct: Kinases are expressed as either kinase domains or full length constructs; made in house
# Zap-70 = target: T10, Zap-70 (Homo sapiens, UniProt P43403); experiment: Kinase inhibition assay (33P transfer), Zap-70; details: Table 3; for IC50: read-out: Zap-1
# T10 construct: Kinases are expressed as either kinase domains or full length constructs; made in house
# T10 sequence (P43403 1-619): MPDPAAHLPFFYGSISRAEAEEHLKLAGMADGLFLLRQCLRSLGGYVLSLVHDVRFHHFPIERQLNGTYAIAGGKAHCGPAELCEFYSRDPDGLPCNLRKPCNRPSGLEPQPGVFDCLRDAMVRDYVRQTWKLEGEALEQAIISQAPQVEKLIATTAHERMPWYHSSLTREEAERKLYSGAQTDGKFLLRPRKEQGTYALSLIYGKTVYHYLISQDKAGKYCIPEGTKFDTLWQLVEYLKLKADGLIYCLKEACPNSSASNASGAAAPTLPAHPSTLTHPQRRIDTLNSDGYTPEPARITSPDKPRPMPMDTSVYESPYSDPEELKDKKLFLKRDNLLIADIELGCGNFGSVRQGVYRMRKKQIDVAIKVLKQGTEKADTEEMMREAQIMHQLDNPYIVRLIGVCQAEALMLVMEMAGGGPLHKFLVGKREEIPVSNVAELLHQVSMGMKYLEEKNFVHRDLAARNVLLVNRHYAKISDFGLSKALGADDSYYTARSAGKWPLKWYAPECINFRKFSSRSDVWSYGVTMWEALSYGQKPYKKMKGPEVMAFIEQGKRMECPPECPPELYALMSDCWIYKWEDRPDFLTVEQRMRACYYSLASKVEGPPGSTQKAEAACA
# Outline: as §1
# T5 sequence (P06239 whole entry, species assumed, the tested form may be a part): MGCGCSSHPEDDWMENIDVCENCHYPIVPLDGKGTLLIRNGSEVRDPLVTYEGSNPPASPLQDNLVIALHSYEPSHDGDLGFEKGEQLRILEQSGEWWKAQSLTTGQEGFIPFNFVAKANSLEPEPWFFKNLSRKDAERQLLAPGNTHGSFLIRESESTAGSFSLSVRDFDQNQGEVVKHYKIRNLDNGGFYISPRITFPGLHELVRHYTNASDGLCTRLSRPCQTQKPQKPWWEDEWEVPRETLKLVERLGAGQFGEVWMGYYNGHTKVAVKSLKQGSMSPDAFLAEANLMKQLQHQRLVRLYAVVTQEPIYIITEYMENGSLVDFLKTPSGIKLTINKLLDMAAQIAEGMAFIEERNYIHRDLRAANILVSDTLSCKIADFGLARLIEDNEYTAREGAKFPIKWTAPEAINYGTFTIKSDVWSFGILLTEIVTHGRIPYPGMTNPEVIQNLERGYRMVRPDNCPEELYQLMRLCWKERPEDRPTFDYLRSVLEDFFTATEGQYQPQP
# T7 sequence (P08581 25-1390): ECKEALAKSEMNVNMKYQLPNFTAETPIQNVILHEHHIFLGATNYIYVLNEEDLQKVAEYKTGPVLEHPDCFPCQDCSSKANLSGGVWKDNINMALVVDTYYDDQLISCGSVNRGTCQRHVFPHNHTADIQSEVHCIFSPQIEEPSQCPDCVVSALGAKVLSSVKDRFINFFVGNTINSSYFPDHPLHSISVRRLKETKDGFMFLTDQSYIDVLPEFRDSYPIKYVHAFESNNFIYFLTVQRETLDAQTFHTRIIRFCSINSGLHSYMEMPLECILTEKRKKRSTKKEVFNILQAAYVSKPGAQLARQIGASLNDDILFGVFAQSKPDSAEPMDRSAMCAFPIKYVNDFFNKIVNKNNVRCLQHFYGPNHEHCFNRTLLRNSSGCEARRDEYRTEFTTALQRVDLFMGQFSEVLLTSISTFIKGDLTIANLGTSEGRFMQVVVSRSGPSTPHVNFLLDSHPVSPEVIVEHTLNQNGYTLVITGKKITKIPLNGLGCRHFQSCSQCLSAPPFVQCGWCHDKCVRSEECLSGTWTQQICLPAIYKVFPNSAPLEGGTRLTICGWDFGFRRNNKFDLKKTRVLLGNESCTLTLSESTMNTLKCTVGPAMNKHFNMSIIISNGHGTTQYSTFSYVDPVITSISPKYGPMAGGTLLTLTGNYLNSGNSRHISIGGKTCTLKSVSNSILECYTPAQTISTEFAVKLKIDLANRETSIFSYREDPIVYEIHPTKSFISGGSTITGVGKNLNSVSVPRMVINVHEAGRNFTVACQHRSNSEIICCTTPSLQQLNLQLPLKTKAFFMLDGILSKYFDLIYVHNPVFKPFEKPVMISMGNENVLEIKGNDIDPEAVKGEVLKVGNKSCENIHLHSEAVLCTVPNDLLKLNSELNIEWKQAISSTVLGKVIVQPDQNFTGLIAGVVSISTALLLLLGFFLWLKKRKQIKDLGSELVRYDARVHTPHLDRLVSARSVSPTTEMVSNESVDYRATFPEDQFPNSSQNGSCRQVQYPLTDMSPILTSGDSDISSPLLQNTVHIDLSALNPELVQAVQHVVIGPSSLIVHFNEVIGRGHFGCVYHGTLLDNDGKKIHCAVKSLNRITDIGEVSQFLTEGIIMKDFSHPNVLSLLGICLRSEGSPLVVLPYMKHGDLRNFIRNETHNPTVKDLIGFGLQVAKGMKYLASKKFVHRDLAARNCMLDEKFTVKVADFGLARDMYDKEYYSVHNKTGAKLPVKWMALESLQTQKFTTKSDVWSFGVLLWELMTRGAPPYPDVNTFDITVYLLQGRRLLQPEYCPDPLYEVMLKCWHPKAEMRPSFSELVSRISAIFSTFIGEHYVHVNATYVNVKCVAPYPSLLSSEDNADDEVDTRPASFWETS
# T2 sequence (Q9Y243 whole entry, the tested form may be a part): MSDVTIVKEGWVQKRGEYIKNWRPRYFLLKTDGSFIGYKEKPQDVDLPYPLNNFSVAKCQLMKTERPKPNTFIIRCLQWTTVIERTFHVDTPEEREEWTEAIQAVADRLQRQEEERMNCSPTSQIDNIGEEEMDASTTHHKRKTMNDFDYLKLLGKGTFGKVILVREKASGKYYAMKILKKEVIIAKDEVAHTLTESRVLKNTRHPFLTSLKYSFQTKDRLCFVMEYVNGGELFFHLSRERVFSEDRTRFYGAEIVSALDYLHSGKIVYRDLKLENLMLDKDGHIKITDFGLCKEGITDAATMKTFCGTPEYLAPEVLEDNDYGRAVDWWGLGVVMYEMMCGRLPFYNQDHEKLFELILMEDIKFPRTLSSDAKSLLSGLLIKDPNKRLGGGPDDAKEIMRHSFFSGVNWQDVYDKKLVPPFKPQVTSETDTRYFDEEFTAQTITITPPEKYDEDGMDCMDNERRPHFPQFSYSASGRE
# T3 sequence (P35968 20-1356, species assumed): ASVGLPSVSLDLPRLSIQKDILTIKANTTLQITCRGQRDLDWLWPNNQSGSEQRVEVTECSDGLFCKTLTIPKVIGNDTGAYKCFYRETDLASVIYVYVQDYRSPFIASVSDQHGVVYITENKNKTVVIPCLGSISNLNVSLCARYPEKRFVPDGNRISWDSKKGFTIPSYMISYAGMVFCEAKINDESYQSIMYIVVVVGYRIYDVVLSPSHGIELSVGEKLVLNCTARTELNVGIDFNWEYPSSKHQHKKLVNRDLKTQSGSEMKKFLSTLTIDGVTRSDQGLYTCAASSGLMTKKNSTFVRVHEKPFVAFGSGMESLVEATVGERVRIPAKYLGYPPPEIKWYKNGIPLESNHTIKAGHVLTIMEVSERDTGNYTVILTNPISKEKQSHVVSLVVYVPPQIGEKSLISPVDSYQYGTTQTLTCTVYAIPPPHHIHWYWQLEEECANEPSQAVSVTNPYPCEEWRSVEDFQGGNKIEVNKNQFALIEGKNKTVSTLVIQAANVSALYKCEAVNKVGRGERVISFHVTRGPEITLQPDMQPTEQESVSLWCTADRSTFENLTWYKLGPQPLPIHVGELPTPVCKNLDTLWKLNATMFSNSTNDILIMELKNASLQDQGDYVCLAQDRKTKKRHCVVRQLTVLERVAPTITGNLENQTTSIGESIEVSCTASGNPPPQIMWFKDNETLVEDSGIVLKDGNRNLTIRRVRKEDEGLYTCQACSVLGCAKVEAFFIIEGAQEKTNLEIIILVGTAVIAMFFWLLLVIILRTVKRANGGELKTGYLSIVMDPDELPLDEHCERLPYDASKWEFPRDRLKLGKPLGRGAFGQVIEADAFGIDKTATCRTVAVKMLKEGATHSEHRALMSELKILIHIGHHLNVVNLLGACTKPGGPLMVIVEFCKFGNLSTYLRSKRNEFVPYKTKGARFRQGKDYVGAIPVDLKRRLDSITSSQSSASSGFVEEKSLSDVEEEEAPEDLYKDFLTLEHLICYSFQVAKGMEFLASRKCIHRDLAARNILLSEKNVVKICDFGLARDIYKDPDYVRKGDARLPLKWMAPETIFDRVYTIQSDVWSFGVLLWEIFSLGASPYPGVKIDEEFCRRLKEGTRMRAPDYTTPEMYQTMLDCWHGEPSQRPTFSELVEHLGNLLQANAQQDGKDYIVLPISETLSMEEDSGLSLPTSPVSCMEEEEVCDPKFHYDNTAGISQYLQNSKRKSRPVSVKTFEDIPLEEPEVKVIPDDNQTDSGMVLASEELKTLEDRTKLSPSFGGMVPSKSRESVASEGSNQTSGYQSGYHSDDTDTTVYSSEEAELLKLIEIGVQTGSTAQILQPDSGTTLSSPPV
# T9 sequence (P08069 31-1367): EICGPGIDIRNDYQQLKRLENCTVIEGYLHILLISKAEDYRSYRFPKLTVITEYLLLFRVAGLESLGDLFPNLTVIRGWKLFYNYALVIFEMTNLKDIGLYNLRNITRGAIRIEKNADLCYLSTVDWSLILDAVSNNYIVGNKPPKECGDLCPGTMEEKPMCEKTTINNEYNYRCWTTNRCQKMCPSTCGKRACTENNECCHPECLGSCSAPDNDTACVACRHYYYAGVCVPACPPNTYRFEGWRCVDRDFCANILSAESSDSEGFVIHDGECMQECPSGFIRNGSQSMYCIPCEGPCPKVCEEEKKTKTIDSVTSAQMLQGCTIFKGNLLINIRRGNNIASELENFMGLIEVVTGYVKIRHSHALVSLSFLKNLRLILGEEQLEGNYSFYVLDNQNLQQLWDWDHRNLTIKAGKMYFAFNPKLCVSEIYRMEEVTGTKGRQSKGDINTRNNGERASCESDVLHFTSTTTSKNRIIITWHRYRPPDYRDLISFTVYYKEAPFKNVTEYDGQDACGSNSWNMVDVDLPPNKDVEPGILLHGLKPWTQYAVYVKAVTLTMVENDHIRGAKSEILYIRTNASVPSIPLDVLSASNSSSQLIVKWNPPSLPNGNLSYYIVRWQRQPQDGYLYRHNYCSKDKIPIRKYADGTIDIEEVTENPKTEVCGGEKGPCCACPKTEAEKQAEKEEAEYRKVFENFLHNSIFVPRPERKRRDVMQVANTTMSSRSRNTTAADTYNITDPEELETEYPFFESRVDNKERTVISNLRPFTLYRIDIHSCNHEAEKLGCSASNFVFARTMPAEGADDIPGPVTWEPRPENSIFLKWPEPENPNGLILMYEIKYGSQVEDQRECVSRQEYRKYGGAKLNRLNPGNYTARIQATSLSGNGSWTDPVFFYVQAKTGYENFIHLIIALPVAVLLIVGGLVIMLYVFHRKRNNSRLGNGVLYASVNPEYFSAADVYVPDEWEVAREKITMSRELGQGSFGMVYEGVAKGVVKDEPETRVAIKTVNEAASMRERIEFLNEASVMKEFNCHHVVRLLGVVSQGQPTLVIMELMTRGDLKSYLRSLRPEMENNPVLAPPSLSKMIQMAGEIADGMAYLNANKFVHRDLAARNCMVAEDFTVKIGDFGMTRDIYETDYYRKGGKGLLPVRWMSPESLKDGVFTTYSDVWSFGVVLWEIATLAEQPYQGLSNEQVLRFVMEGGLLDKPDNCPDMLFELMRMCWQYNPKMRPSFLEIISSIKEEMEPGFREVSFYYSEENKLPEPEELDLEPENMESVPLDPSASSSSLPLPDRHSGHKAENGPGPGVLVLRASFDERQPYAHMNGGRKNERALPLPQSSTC
SMILES,IC50 (EPHB4) [µM],IC50 (AKT) [µM],IC50 (Kdr) [µM],IC50 (Tek) [µM],IC50 (Lck) [µM],IC50 (EGFR) [µM],IC50 (c-Met) [µM],IC50 (Itk) [µM],IC50 (IGFR-1) [µM],IC50 (Zap-70) [µM],EPHB4-1 (EPHB4),AKT3-1 (AKT),KDR-1 (Kdr),Lck-1 (Lck),EGFR-1 (EGFR),Met-1 (c-Met),Itk-1 (Itk),IGFR-1 (IGFR-1),Zap-1 (Zap-70)
COc1cc(Nc2ncnc(Nc3[nH]ncc3-c3ccccc3)n2)cc(OC)c1OC [Compound 369],> 10.7,> 10.7,> 10.7,> 10.7,5.72 to 8.34,> 10.7,> 10.7,8.34 to 10.7,> 10.7,> 10.7,–,–,–,–,–,–,–,–,–
COc1cc(Nc2ncnc(Nc3ccncc3)n2)cc(OC)c1OC [Compound 39],> 12.7,> 12.7,> 12.7,–,> 12.7,> 12.7,> 12.7,> 12.7,> 12.7,> 12.7,–,–,–,–,–,–,–,–,–
COc1cc(Nc2ncnc(-c3ccc(C)cc3)n2)cc(OC)c1OC [Compound 221],1.14 to 6.81,> 12.8,1.14 to 6.81,–,> 12.8,> 12.8,> 12.8,> 12.8,< 1.14,> 12.8,–,–,–,–,–,–,–,–,–
COc1cc(Nc2ncnc(-n3cc(C#N)c4ccccc43)n2)cc(OC)c1OC [Compound 332],0.994 to 5.96,> 11.2,0.994 to 5.96,–,8.7 to 11.2,> 11.2,5.96 to 8.7,> 11.2,5.96 to 8.7,> 11.2,–,–,–,–,–,–,–,–,–
FC(F)C(F)(F)Oc1cccc(Nc2ncnc(-c3ccnc(Cl)c3)n2)c1 [Compound 330],6 to 8.76,> 11.3,> 11.3,–,> 11.3,> 11.3,> 11.3,> 11.3,8.76 to 11.3,> 11.3,–,–,–,–,–,–,–,–,–
COc1cc(NC(=O)Nc2ncnc(-c3ccncc3)n2)cc(OC)c1OC [Compound 1118],–,–,–,–,–,–,–,–,–,–,E (E>4.5 ug/mL),E (E>4.5 ug/mL),E (E>4.5 ug/mL),E (E>4.5 ug/mL),B (B>0.4 and <2.4 ug/mL),E (E>4.5 ug/mL),E (E>4.5 ug/mL),E (E>4.5 ug/mL),E (E>4.5 ug/mL)
COc1cc(Nc2ncnc(Nc3ccccn3)n2)cc(OC)c1OC [Compound 40],> 12.7,> 12.7,> 12.7,–,> 12.7,> 12.7,> 12.7,> 12.7,> 12.7,> 12.7,–,–,–,–,–,–,–,–,–
COc1cc(Nc2ncnc(Nc3ccc(NC(=O)OC(C)(C)C)cc3)n2)cc(OC)c1OC [Compound 69],> 9.6,> 9.6,0.854 to 5.12,–,0.854 to 5.12,> 9.6,> 9.6,> 9.6,> 9.6,> 9.6,–,–,–,–,–,–,–,–,–
